1 compound from patent US7662815B2, “Diaryl ether β2 adrenergic receptor agonists” (Theravance, Inc., priority 2004, dated 2010) can be followed below.

This experiment deals with T1, human β2 adrenergic receptor (Homo sapiens, UniProt P07550).
T1 construct: expressed in transfected cells; membranes prepared from the cells
Nature of the experiment: Radioligand binding assay on human β1 and β2 adrenergic receptors ([3H]dihydroalprenolol displacement). As to conditions: binding at β2 versus β1 adrenergic receptor; HEK-293 membranes. As to the method:
HEK-293 derived cell lines stably expressing cloned human β1 or β2 adrenergic receptors, respectively, were grown to near confluency in DMEM with 10% dialyzed FBS in the presence of 500 μg/mL Geneticin. The cell monolayer was lifted with Versene 1:5,000 (0.2 g/L EDTA in PBS) using a cell scraper. Cells were pelleted by centrifugation at 1,000 rpm, and cell pellets were either stored frozen at −80° C. or membranes were prepared immediately. […] Protein concentration of the membrane suspension was determined by the method of Bradford (Bradford M M., Analytical Biochemistry, 1976, 72, 248-54). […]
Binding assays were performed in 96-well microtiter plates in a total assay volume of 100 μL with 5 μg membrane protein for membranes containing the human β2 adrenergic receptor, or 2.5 μg membrane protein for membranes containing the human 01 adrenergic receptor in assay buffer (75 mM Tris/HCl pH 7.4 @ 25° C., 12.5 mM MgCl2, 1 mM EDTA, 0.2% BSA). […] Non-specific binding was determined in the presence of 10 μM unlabeled alprenolol. […] Filter plates were washed three times with filtration buffer (75 mM Tris/HCl pH 7.4 @4° C., 12.5 mM MgCl2, 1 mM EDTA) to remove unbound radioactivity. […] Binding data were analyzed by nonlinear regression analysis with the GraphPad Prism Software package (GraphPad Software, Inc., San Diego, Calif.) using the 3-parameter model for one-site competition. […]

T1 sequence (P07550 whole entry): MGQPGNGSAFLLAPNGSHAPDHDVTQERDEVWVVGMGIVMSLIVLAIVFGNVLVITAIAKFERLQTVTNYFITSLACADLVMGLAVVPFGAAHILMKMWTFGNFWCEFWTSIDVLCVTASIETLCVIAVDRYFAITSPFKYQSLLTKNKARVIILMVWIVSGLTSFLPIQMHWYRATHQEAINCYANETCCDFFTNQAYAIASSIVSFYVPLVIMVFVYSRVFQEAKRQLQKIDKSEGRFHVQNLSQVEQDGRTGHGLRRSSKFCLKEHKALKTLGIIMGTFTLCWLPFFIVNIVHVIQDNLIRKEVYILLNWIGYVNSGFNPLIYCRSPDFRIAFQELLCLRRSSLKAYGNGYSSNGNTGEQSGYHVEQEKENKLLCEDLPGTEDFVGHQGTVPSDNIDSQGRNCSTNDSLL

On to `COc1ccc(Oc2ccc(CCNC[C@H](O)c3ccc(O)c4[nH]c(=O)ccc34)cc2)cc1-c1ccccc1` [Example 1, 8-Hydroxy-5-((R)-1-hydroxy-2-{2-[4-(6-methoxybiphenyl-3-yloxy)phenyl]ethylamino}ethyl)-1H-quinolin-2-one], for which the “receptor subtype selectivity, ratio Ki(β1)/Ki(β2)” value was “about 18”.
